The text below walks through data of patent US20250163104A1, “MACROCYCLIC IMMUNOMODULATORS” (priority 2021, published 2025).

Where a SMILES comes first, the peptide text is derived from it. Bridges are numbered along the chain shown (N, C = ends). [ ]: non-standard residue; d: D form. The star is where a group is joined. ξ: configuration not given here. Ala(1H-tetrazol-5-yl) = N[C@@H](Cc1nnn[nH]1)C(=O)O; Phe(3-CF3) = N[C@@H](Cc1cccc(C(F)(F)F)c1)C(=O)O; Ala(morpholin-4-yl) = N[C@@H](CN1CCOCC1)C(=O)O; Phe(4-COOH) = N[C@@H](Cc1ccc(C(=O)O)cc1)C(=O)O; Bip = N[C@@H](Cc1ccc(-c2ccccc2)cc1)C(=O)O; Phe(3-Me) = Cc1cccc(C[C@H](N)C(=O)O)c1; 4Pal = N[C@@H](Cc1ccncc1)C(=O)O; Cha = N[C@@H](CC1CCCCC1)C(=O)O; Cit = NC(=O)NCCC[C@H](N)C(=O)O; Carboxymethyl = O=C(O)C*; Nle = CCCC[C@H](N)C(=O)O; Orn = NCCC[C@H](N)C(=O)O; Dab = NCC[C@H](N)C(=O)O; Dap = NC[C@H](N)C(=O)O; ξPra = C#CCC(N)C(=O)O

The target in this assay is T1, human PD-1 / PD-L1-Ig binding on Jurkat cell line over-expressing human PD-1 (Jurkat-PD-1) (Homo sapiens, UniProt Q15116).
T1 construct: expressed in transfected cells; host or cells: Jurkat
T1 sequence (Q15116 25-288): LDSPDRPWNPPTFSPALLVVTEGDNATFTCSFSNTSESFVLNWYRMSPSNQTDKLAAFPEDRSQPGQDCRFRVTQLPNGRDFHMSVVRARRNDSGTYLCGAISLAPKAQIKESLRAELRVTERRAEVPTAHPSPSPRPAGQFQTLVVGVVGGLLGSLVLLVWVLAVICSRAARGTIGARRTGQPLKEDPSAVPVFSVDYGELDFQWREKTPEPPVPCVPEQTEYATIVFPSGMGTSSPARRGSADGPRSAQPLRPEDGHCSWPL
Description: Jurkat-PD-1 Cell Binding High-Content Screening Assay (CBA). The assay is classed as cell-based. The conditions noted are these: Jurkat-PD-1 cells, PE-labeled PD-L1-Ig 20 nM final; read-out: Jurkat HPD1_PDL1 IC50. Summed up: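 Compounds were preincubated with Jurkat-hPD-1 cells in DMEM plus 10% fetal calf serum for 2 h at 37° C. Phycoerythrin-labeled PD-L1-Ig (20 nM final) was then added for 1 hour. Cells were fixed in 4% paraformaldehyde with Hoechst 33342, and bound fluorescence was quantified by high-content imaging.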

Regarding `CC(C)C[C@H]1NC(=O)[C@H](CCCN)NC(=O)[C@H](CCCN)NC(=O)[C@H](Cc2ccc(-c3ccccc3)cc2)NC(=O)[C@H](Cc2ccc(C(=O)O)cc2)NC(=O)[C@H](Cc2cccc(C(F)(F)F)c2)NC(=O)[C@H](CC(N)=O)NC(=O)[C@H](Cc2ccc(OCC(=O)O)cc2)NC(=O)[C@H](CN2CCOCC2)NC(=O)CSC[C@@H](C(=O)N[C@@H](CCN)C(N)=O)NC(=O)[C@H](CCCN)NC(=O)[C@H](C(C)C)NC(=O)[C@H](CC2CCCCC2)NC(=O)[C@H](CCN)NC1=O` [Example 2726] ({CH2CO}-[Ala(morpholin-4-yl)]Y(Carboxymethyl)N[Phe(3-CF3)][Phe(4-COOH)][Bip][Orn][Orn][dL][Dab][Cha]V[Orn]C[Dab]-NH2; thioether N-14), the IC50 came to 65.5 nM.

As to `Cc1cccc(C[C@@H]2NC(=O)[C@H](CC(=O)O)NC(=O)[C@H](Cc3ccc(C(=O)O)cc3)NC(=O)[C@H](Cc3ccc(OCC(=O)O)cc3)NC(=O)CSC[C@@H](C(N)=O)NC(=O)[C@H]([C@@H](C)O)NC(=O)[C@H](C(C)C)NC(=O)[C@H](CC(C)C)NC(=O)[C@H](CCN)NC(=O)[C@@H](CC(C)C)NC(=O)[C@H](CCCN)NC(=O)[C@H](C(C)C)NC(=O)[C@H](Cc3ccc(-c4ccccc4)cc3)NC(=O)[C@H](C(C)C)NC2=O)c1` [Compound 1551] ({CH2CO}-Y(Carboxymethyl)[Phe(4-COOH)]D[Phe(3-Me)]V[Bip]V[Orn][dL][Dab]LVTC-NH2; thioether N-14), the half-maximal inhibitory concentration (IC50) came to 15.6 nM.

With `CC(C)C[C@H]1NC(=O)[C@H](CCCN)NC(=O)[C@H](C(C)C)NC(=O)[C@H](Cc2ccc(-c3ccccc3)cc2)NC(=O)[C@H](C(C)C)NC(=O)[C@H](Cc2c[nH]c3ccccc23)NC(=O)[C@H](CC(=O)O)NC(=O)[C@H](Cc2ccc(C(=O)O)cc2)NC(=O)[C@H](Cc2ccc(OCC(=O)O)cc2)NC(=O)CSC[C@@H](C(=O)N[C@@H](C)C(N)=O)NC(=O)[C@H](Cc2cnc[nH]2)NC(=O)[C@H](C(C)C)NC(=O)[C@H](CC2CCCCC2)NC(=O)[C@H](CCN)NC1=O` [Compound 1751] ({CH2CO}-Y(Carboxymethyl)[Phe(4-COOH)]DWV[Bip]V[Orn][dL][Dab][Cha]VHCA-NH2; thioether N-14), the IC50 amounted to 7.8 nM.

For the compound `C#CCC(NC(=O)[C@H](Cc1cnc[nH]1)NC(=O)[C@@H]1CSCC(=O)N[C@@H](Cc2ccncc2)C(=O)N[C@@H](Cc2ccc(OCC(=O)O)cc2)C(=O)N[C@@H](CC(=O)O)C(=O)N[C@@H](Cc2c[nH]c3ccccc23)C(=O)N[C@@H](C(C)C)C(=O)N[C@@H](Cc2ccc(-c3ccccc3)cc2)C(=O)N[C@@H]([C@@H](C)CC)C(=O)N[C@@H](CCCN)C(=O)N[C@H](CC(C)C)C(=O)N[C@@H](CCN)C(=O)N[C@@H](CC(C)C)C(=O)N[C@@H](C(C)C)C(=O)N[C@@H]([C@@H](C)O)C(=O)N1)C(N)=O` (stereo partly drawn) [Compound 1763] ({CH2CO}-[4Pal]Y(Carboxymethyl)DWV[Bip]I[Orn][dL][Dab]LVTCH[ξPra]-NH2; thioether N-14), the IC50 stood at 24 nM.

Turning to `CCCC[C@@H]1NC(=O)CSC[C@@H](C(=O)N[C@@H](CCN)C(N)=O)NC(=O)[C@H](CCC(=O)O)NC(=O)[C@H](C(C)C)NC(=O)[C@H](CC2CCCCC2)NC(=O)[C@H](CCN)NC(=O)[C@@H](CC(C)C)NC(=O)[C@H](CCCN)NC(=O)[C@H](Cc2ccc(C(=O)O)cc2)NC(=O)[C@H](Cc2ccc(-c3ccccc3)cc2)NC(=O)[C@H](Cc2ccc(C(=O)O)cc2)NC(=O)[C@H](Cc2cccc(C)c2)NC(=O)[C@H](CC(N)=O)NC(=O)[C@H](Cc2ccc(OCC(=O)O)cc2)NC1=O` [Example 2723] ({CH2CO}-[Nle]Y(Carboxymethyl)N[Phe(3-Me)][Phe(4-COOH)][Bip][Phe(4-COOH)][Orn][dL][Dab][Cha]VEC[Dab]-NH2; thioether N-14), the IC50 came to 200 nM.

For `CCCC[C@H]1NC(=O)[C@H](CCCN)NC(=O)[C@H](C(C)C)NC(=O)[C@H](Cc2ccc(-c3ccccc3)cc2)NC(=O)[C@H](C(C)C)NC(=O)[C@H](Cc2c[nH]c3ccccc23)NC(=O)[C@H](CC(=O)O)NC(=O)[C@H](Cc2ccc(OCC(=O)O)cc2)NC(=O)[C@H](CN)NC(=O)CSC[C@@H](C(=O)N[C@@H](C)C(N)=O)NC(=O)[C@H]([C@@H](C)O)NC(=O)[C@H](C(C)C)NC(=O)[C@H](CC2CCCCC2)NC(=O)[C@H](CCN)NC1=O` [Compound 1692], the IC50 came to 10.7 nM.

Consider `CCCC[C@H]1NC(=O)[C@H](CCCN)NC(=O)[C@H](CCC(=O)O)NC(=O)[C@H](Cc2ccc(-c3ccccc3)cc2)NC(=O)[C@H](C(C)C)NC(=O)[C@H](Cc2c[nH]c3ccccc23)NC(=O)[C@H](CC(=O)O)NC(=O)[C@H](Cc2ccc(OCC(=O)O)cc2)NC(=O)[C@H](CN)NC(=O)CSC[C@@H](C(=O)N[C@@H](C)C(N)=O)NC(=O)[C@H]([C@@H](C)O)NC(=O)[C@H](C(C)C)NC(=O)[C@H](CC2CCCCC2)NC(=O)[C@H](CCN)NC1=O` [Compound 1454], for which the IC50 was determined as 11.9 nM.

On to `CCCC[C@@H]1NC(=O)[C@H](CCN)NC(=O)[C@@H](CC(C)C)NC(=O)[C@H](CCCN)NC(=O)[C@H](CCCNC(N)=O)NC(=O)[C@H](Cc2ccc(-c3ccccc3)cc2)NC(=O)[C@H](CC(C)C)NC(=O)[C@H](Cc2cccc(C)c2)NC(=O)[C@H](CC(=O)O)NC(=O)[C@H](Cc2ccc(OCC(=O)O)cc2)NC(=O)[C@H](CN)NC(=O)CSC[C@@H](C(=O)N[C@@H](C)C(N)=O)NC(=O)[C@H]([C@@H](C)O)NC(=O)[C@H](C(C)C)NC1=O` [Compound 1295] ({CH2CO}-[Dap]Y(Carboxymethyl)D[Phe(3-Me)]L[Bip][Cit][Orn][dL][Dab][Nle]VTCA-NH2; thioether N-14), for which the IC50 is 9.8 nM.

As to `COC[C@@H]1NC(=O)[C@H](Cc2ccc(OCC(=O)O)cc2)NC(=O)[C@H](CN)NC(=O)CSC[C@@H](C(=O)N[C@@H](C)C(N)=O)NC(=O)[C@H]([C@@H](C)O)NC(=O)[C@H](C(C)C)NC(=O)[C@H](CC2CCCCC2)NC(=O)[C@H](CCN)NC(=O)[C@@H](CC(C)C)NC(=O)[C@H](CCCN)NC(=O)[C@H](CCC(=O)O)NC(=O)[C@H](Cc2ccc(-c3ccccc3)cc2)NC(=O)[C@H](C(C)C)NC(=O)[C@H](Cc2c[nH]c3ccccc23)NC1=O` [Compound 1500] ({CH2CO}-[Dap]Y(Carboxymethyl)S(Me)WV[Bip]E[Orn][dL][Dab][Cha]VTCA-NH2; thioether N-14), the IC50 was found to be 238 nM.

In the case of `CC(C)C[C@@H]1NC(=O)[C@H](Cc2c[nH]c3ccccc23)NC(=O)[C@H](CC(=O)O)NC(=O)[C@H](Cc2ccc(O)cc2)NC(=O)[C@H](Cc2ccccc2)NC(=O)CSC[C@@H](C(=O)NCC(N)=O)NC(=O)[C@H]([C@@H](C)O)NC(=O)[C@H](C(C)C)NC(=O)[C@H](CC(C)C)NC(=O)[C@H](CC(N)=O)NC(=O)[C@@H](CC(C)C)NC(=O)[C@H](CCCN)NC(=O)[C@H](C(C)C)NC(=O)[C@H](Cc2ccc(-c3ccccc3)cc2)NC1=O` [Compound 1064] ({CH2CO}-FYDWL[Bip]V[Orn][dL]NLVTCG-NH2; thioether N-14), the half-inhibitory concentration (IC50) worked out at 51.3 nM.

`CC(C)C[C@@H]1NC(=O)[C@H](CCN)NC(=O)[C@@H](CC(C)C)NC(=O)[C@H](CCCN)NC(=O)[C@H](CCCNC(N)=O)NC(=O)[C@H](Cc2ccc(-c3ccccc3)cc2)NC(=O)[C@H](C(C)C)NC(=O)[C@H](Cc2c[nH]c3ccccc23)NC(=O)[C@H](CC(=O)O)NC(=O)[C@H](Cc2ccc(C(=O)O)cc2)NC(=O)[C@H](Cc2ccc(OCC(=O)O)cc2)NC(=O)CSC[C@@H](C(=O)N[C@@H](C)C(N)=O)NC(=O)[C@H]([C@@H](C)O)NC(=O)[C@H](C(C)C)NC1=O` [Compound 1252] ({CH2CO}-Y(Carboxymethyl)[Phe(4-COOH)]DWV[Bip][Cit][Orn][dL][Dab]LVTCA-NH2; thioether N-14): the concentration for half-maximal inhibition (IC50) turned out to be 21.5 nM.

For the compound `CC(C)C[C@H]1NC(=O)[C@H](CCCN)NC(=O)[C@H](CCCNC(N)=O)NC(=O)[C@H](Cc2ccc(-c3ccccc3)cc2)NC(=O)[C@H](C(C)C)NC(=O)[C@H](Cc2c[nH]c3ccccc23)NC(=O)[C@H](Cc2nn[nH]n2)NC(=O)[C@H](Cc2ccc(OCC(=O)O)cc2)NC(=O)[C@H](CN)NC(=O)CSC[C@@H](C(=O)N[C@@H](C)C(N)=O)NC(=O)[C@H]([C@@H](C)O)NC(=O)[C@H](C(C)C)NC(=O)[C@H](CC2CCCCC2)NC(=O)[C@H](CCN)NC1=O` [Compound 1328] ({CH2CO}-[Dap]Y(Carboxymethyl)[Ala(1H-tetrazol-5-yl)]WV[Bip][Cit][Orn][dL][Dab][Cha]VTCA-NH2; thioether N-14), the half-maximal inhibitory concentration (IC50) was 34.5 nM.

For the compound `CC(C)C[C@H]1NC(=O)[C@H](CCCN)NC(=O)[C@H](CCC(=O)O)NC(=O)[C@H](Cc2ccc(-c3ccccc3)cc2)NC(=O)[C@H](C(C)C)NC(=O)[C@H](Cc2c[nH]c3ccccc23)NC(=O)[C@H](CC(=O)O)NC(=O)[C@H](Cc2ccc(OCC(=O)O)cc2)NC(=O)[C@H](CN)NC(=O)CSC[C@@H](C(=O)N[C@@H](C)C(N)=O)NC(=O)[C@H]([C@@H](C)O)NC(=O)[C@H](C(C)C)NC(=O)[C@H](CC2CCCCC2)NC(=O)[C@H](CC(N)=O)NC1=O` [Compound 1512] ({CH2CO}-[Dap]Y(Carboxymethyl)DWV[Bip]E[Orn][dL]N[Cha]VTCA-NH2; thioether N-14), the IC50 stood at 22.9 nM.

Take `CC(C)C[C@H]1NC(=O)[C@H](CCCN)NC(=O)[C@H](CCC(=O)O)NC(=O)[C@H](Cc2ccc(-c3ccccc3)cc2)NC(=O)[C@H](C(C)C)NC(=O)[C@H](Cc2c[nH]c3ccccc23)NC(=O)[C@H](CC(=O)O)NC(=O)[C@H](Cc2ccc(-c3cccc(C(=O)O)c3)cc2)NC(=O)[C@H](Cc2ccc(OCC(=O)O)cc2)NC(=O)CSC[C@@H](C(=O)N[C@@H](C)C(N)=O)NC(=O)[C@H]([C@@H](C)O)NC(=O)[C@H](C(C)C)NC(=O)[C@H](CC2CCCCC2)NC(=O)[C@H](CCN)NC1=O` [Compound 2163]: the IC50 was 17.6 nM.
